Assay results taken from paper PMC3479967 (Evidence-based Complementary and Alternative Medicine : eCAM, 2012).

Key:
UGT2B4 = target: T1, UGT2B4 (Homo sapiens, UniProt P06133); assay: Inhibition of recombinant UGT2B4 activity (4-MU glucuronidation)
T1 sequence (P06133 24-528): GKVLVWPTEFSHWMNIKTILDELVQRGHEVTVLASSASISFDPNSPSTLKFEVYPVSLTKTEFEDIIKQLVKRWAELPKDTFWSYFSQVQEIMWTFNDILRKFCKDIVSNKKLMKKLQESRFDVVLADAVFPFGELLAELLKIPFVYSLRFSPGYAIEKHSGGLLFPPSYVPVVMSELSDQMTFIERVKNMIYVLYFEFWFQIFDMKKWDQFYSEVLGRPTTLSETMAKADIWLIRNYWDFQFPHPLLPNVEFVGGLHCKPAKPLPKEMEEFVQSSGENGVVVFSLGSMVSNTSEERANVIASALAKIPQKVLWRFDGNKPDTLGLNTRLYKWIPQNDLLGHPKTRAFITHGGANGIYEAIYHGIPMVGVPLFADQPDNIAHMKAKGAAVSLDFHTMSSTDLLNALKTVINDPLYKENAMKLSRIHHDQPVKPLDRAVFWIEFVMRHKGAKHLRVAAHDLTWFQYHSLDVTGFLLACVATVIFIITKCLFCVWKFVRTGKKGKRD
Description: (§1) A panel of recombinant human UGT supersomes (UGT1A1, UGT1A3, UGT1A4, UGT1A6, UGT1A7, UGT1A8, UGT1A9, UGT1A10, UGT2B4, UGT2B7, UGT2B15, and UGT2B17) expressed in baculovirus-infected insect cells were purchased from BD Gentest Corp. (Woburn, MA, USA).
(§2) 4-MU, a nonselective substrate of UGTs, was used as probe substrate for all UGTs except UGT1A4. Incubations with each individual enzyme were conducted using conditions previously described. There was a 5 min preincubation step at 37°C before the reaction was started by addition of UDPGA. The incubation mixtures were then centrifuged at 20,500 ×g for 15 min to obtain the supernatant. Aliquots (20 μL) were then analyzed by HPLC. The HPLC system (SHIMADZU, Kyoto, Japan) consisted of an SCL-10A system controller, two LC-10AT pumps, a SIL-10A auto injector, and a SPD-10AVP UV detector. Chromatographic separation was achieved using a Kromasil ODS column (4.6 × 150 mm I.D., 5 μm particle size) at a flow rate of 1 mL/min and UV detection at 316 nm. The mobile phase consisted of 10 mM KH2PO4, pH 2.7 (A) and acetonitrile (B). The following gradient was applied at a flow rate of 1 mL/min: 0–4 min 80% A and 20% B, 4.1–8 min 50% A and 50% B, 8.1–12 min, 30% A and 70% B. All experiments were performed in two independent experiments in duplicate.
(§3) A typical incubation mixture contained recombinant human UGTs, 5 mM MgCl2, 5 mM UDPGA, 50 μg/mg protein alamethicin, 50 mM Tris-HCl buffer (pH 7.4), and various probe substrates of UGTs in the absence or presence of different concentrations of inhibitors. […] The final concentration of DMSO in the incubation system was 1% (v/v). […]
(§4) Inhibition data from experiments were graphically represented by Dixon plots. K i values were calculated by nonlinear regression using the equations for competitive inhibition (1), noncompetitive inhibition (2), or mixed inhibition (3), [22] […] The type of inhibition was determined from the enzyme inhibition models. Goodness of fit to kinetic and inhibition models was assessed from the F statistic, r ^2 values, parameter standard error estimates, and 95% confidence intervals. […]

UGT1A9 = target: T2, UGT1A9 (Homo sapiens, UniProt O60656); assay: Inhibition of recombinant UGT1A9 activity (4-MU glucuronidation)
T2 sequence (O60656 26-530): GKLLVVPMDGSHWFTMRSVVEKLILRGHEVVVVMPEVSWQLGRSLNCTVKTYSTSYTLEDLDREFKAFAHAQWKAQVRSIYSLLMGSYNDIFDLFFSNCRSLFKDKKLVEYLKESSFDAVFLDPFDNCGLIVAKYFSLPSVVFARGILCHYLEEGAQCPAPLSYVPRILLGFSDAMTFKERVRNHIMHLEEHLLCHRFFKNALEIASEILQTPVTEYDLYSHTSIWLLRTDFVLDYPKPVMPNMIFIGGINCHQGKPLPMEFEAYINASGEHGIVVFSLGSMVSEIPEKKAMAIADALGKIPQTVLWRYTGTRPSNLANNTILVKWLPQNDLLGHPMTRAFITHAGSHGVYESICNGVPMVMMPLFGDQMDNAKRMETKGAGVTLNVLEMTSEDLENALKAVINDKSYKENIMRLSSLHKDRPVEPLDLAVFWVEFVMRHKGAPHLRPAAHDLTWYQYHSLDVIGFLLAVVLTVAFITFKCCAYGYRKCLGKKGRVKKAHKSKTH
Description: as §1, §2, §3, §4

[1] = Calculation of possible maximum concentrations in gut lumen; set-up: species or system human; conditions: calculated, after a single oral administration of Epimedium pubescens decoction
Text: The reported V L was 1.65 L/70 kg. […] Here we arbitrarily assumed the ratio in rat equaled to that in human blood, and the values of their oral bioavailability were consistent.

| SMILES | IC50 (UGT2B4) [µM] | IC50 (UGT1A9) [µM] | Possible maximum concentration in human gut lumen [1] |
| --- | --- | --- | --- |
| COc1ccc(-c2oc3c(CC=C(C)C)c(O[C@@H]4O[C@H](CO)[C@@H](O)[C@H](O)[C@H]4O)cc(O)c3c(=O)c2O[C@@H]2O[C@@H](C)[C@H](O)[C@@H](O)[C@H]2O)cc1 [Icariin] | > 100 | > 100 | about 9.9 μM |
| COc1ccc(-c2oc3c(CC=C(C)C)c(O)cc(O)c3c(=O)c2O)cc1 [Icaritin] | > 100 | 1.5 ± 0.1 | ~3.8 µM |
| COc1ccc(-c2oc3c(CC=C(C)C)c(O[C@@H]4O[C@H](CO)[C@@H](O)[C@H](O)[C@H]4O)cc(O)c3c(=O)c2O)cc1 [Icariside I] | > 100 | > 100 | ~0.2 µM |
